The results in this text go back to PubChem BioAssay (NCI).

Experiment in all cases: growth of human tumour cells (NCI), 48 h
In assay [1] the test system is MALME-3M melanoma.
Assay [2] deals with OVCAR-4 ovarian.
The subject of assay [3] is OVCAR-8 ovarian.
In assay [4] the test system is IGROV1 ovarian.
Assay [5] concerns HOP-62 NSCLC.
In assay [6] the test system is COLO 205 colon.
Assay [7] has as its system DU-145 prostate.
Assay [8] concerns UACC-62 melanoma.
Assay [9] deals with UACC-257 melanoma.
Assay [10] has as its system ACHN renal.

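Tested at 5 concentrations; 48 h exposure; 96-well plates; endpoints linearly interpolated, else capped at highest concentration. At the GI50, growth is halved. TGI denotes the concentration required for complete inhibition of growth.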

With `COc1cc(OC)c(/C=C/c2cnc3ccccc3n2)c(OC)c1`, the TGI in [1], in assay [2], in [3], in assay [4], in assay [5] and in assay [6] was more than 10 µM throughout. Also, the TGI in assay [7], in assay [8], in [9] and in [10] was more than 10 µM in each case.

For the molecule `O=C1c2ccccc2C(=O)c2c1ccc(C1C(=O)c3ccccc3C1=O)c2-c1c(C2C(=O)c3ccccc3C2=O)ccc2c1C(=O)c1ccccc1C2=O`, the TGI in assay [1], in assay [2], in assay [3], in assay [4], in assay [5] and in assay [6] was more than 100 µM each time. The TGI in assay [7], in assay [8], in assay [9] and in [10] was more than 100 µM throughout.

Take `COc1ccc2c(c1)C(=O)c1c-2c(Nc2ccc(Cl)cc2)nc2ccccc12`: the GI50 is 11 µM in assay [1]; 10.1 µM in assay [2]; 11.4 µM in [3]; 10.7 µM in assay [4]; 2.86 µM in assay [5]; 34.8 µM in assay [6]. In addition, the GI50 in [7] is 8.49 µM; in assay [8], 11.3 µM; in [9], 27.8 µM; in [10] it was 4.23 µM. For the same molecule, the TGI is 42.4 µM in assay [1]; 42.9 µM in assay [2]; 29.6 µM in assay [3]; 52.1 µM in assay [4]; 11.3 µM in [5]; more than 100 µM in assay [6]. The TGI is 98.5 µM in [7], 26 µM in assay [8], more than 100 µM in assay [9] and 16.3 µM in [10].

With `COc1ccc(OC)c(/C=C(/C)[N+](=O)[O-])c1`, the GI50 in [1] is 1.81 µM; in [2] it was 1.98 µM; in assay [3], 2.13 µM; in [4], 2.97 µM; in [5] it was 2.31 µM; in [6], 1.92 µM. The GI50 in [7] is 1.64 µM; in assay [8], 2.06 µM; in [9], 1.69 µM; in assay [10], 1.77 µM. Also, the TGI amounted to 3.61 µM in assay [1]; 3.5 µM in assay [2]; 4.91 µM in assay [3]; 8.39 µM in [4]; 4.86 µM in assay [5]; 3.63 µM in assay [6]. Moreover, the TGI in assay [7] came to 3.16 µM; in assay [8] it was 4.54 µM; in assay [9] it was 3.22 µM; in assay [10], 3.29 µM.

In the case of `Cc1occc1C(=S)Nc1ccc(Cl)c(C(=O)OC(C)C2CC2)c1` (stereo not given), the TGI was determined as 36.4 µM in assay [1]; 40.5 µM in assay [2]; 43.2 µM in [3]; 35.2 µM in assay [4]; 57.7 µM in [5]; 51.3 µM in assay [6]. In addition, the TGI is more than 100 µM in assay [7], 71.1 µM in [8], more than 100 µM in assay [9] and 42 µM in [10].

On to `COc1cc2c3c(n(CCCI)c(=O)c2cc1OC)-c1cc2c(cc1C3=O)OCO2`, for which the GI50 in assay [1] is 7.57 µM; in assay [2], 17.2 µM; in assay [3] it was 3.16 µM; in assay [4], 5.24 µM; in assay [5], 4.45 µM; in assay [6], 9.17 µM. The GI50 was 2.28 µM in [7], 0.202 µM in [8], 3.77 µM in assay [9] and 2.14 µM in assay [10]. The TGI was 54.6 µM in [1]; more than 100 µM in assay [2]; 81.8 µM in assay [3]; more than 100 µM in assay [4]; more than 100 µM in assay [5]; more than 100 µM in assay [6]. Besides, the TGI in assay [7] was more than 100 µM; in [8] it was 1.91 µM; in assay [9], 49.4 µM; in assay [10], 8.34 µM.

Consider `CCNC(=O)c1cc2c(-c3cc(C(C)(C)O)ccc3Oc3c(C)cc(F)cc3C)cn(C)c(=O)c2[nH]1`, for which the GI50 was 2.15 µM in [1]; 1.84 µM in assay [2]; 2.54 µM in [3]; 1.39 µM in assay [4]; 0.914 µM in assay [5]; 0.507 µM in [6]. Moreover, the GI50 in assay [7] was 4.52 µM; in assay [8], 0.17 µM; in assay [9], 2.27 µM; in [10] it was 2.15 µM. The TGI in assay [1] came to 15.2 µM; in [2], 16.6 µM; in [3], 20.4 µM; in [4] it was 11.2 µM; in [5], 13.7 µM; in assay [6] it was 2.84 µM. In addition, the TGI was determined as 18.4 µM in assay [7], 9.42 µM in [8], 18.5 µM in [9] and 12.1 µM in assay [10].

Regarding `CCN(C(=O)c1cc(F)ccc1Oc1cncnc1N1CC2(CCN(CC3CCC(NS(=O)(=O)CC)CC3)CC2)C1)C(C)C` (stereo not given), the GI50 in [1], in [2], in [3], in [4], in [5] and in [6] was more than 100 µM throughout. Besides, the GI50 in [7], in assay [8], in [9] and in assay [10] was more than 100 µM throughout. The TGI in [1], in [2], in assay [3], in assay [4], in assay [5] and in assay [6] was more than 100 µM throughout. Besides, the TGI in assay [7], in [8], in assay [9] and in assay [10] was more than 100 µM in each case.
